Test results from PubChem BioAssay (NCI).
Values joined by “and” are separate entries in the source; they are usually repeats but may differ in a detail not shown here. Identical values can stand only once.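 The compound was tested at five concentrations on cells cultured in 96-well plates, with a 48-hour exposure period. Abbreviation: GI50, concentration required for 50% inhibition of growth. TGI denotes the concentration required for complete inhibition of growth.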

Tests used:
Test in all cases: DTP human tumour cell line panel, 48 h
A498 renal = tested on: A498 renal
CAKI-1 renal = tested on: CAKI-1 renal
COLO 205 colon = tested on: COLO 205 colon
HT29 colon = tested on: HT29 colon
LOX IMVI melanoma = tested on: LOX IMVI melanoma
MDA-MB-435 = tested on: MDA-MB-435
MOLT-4 leukemia = tested on: MOLT-4 leukemia
OVCAR-4 ovarian = tested on: OVCAR-4 ovarian
SNB-75 CNS = tested on: SNB-75 CNS
TK-10 renal = tested on: TK-10 renal
UACC-62 melanoma = tested on: UACC-62 melanoma

Row | Compound | TGI (A498 renal) | TGI (CAKI-1 renal) | TGI (COLO 205 colon) [µM] | TGI (HT29 colon) [µM] | TGI (LOX IMVI melanoma) [µM] | TGI (MDA-MB-435) | TGI (MOLT-4 leukemia) [µM] | TGI (OVCAR-4 ovarian) [µM] | TGI (SNB-75 CNS) [µM] | TGI (TK-10 renal) [µM] | TGI (UACC-62 melanoma) [µM] | GI50 (A498 renal) | GI50 (CAKI-1 renal) | GI50 (LOX IMVI melanoma) | GI50 (MDA-MB-435) | GI50 (MOLT-4 leukemia) | GI50 (SNB-75 CNS) | GI50 (UACC-62 melanoma)
1 | CC(C)N1CN(c2ccccc2)C2(CCN(CCCC(=O)c3ccc(F)cc3)CC2)C1=O | 7.06 µM | 34.7 µM | 1.7 | 7.85 | 20.2 | 27.6 µM | 47.3 | > 76 | > 91.6 | > 49.5 | 38.7 |  |  |  |  |  |  | 
2 | CC(C)=CCC[C@@H](C)C1=C(O)C(N)=C(C)C(=O)C1=O | > 100 µM | > 83.6 µM | > 100 | > 100 | > 100 | > 100 µM | > 56.6 | > 100 | > 100 | > 100 | > 93.4 |  |  |  |  |  |  | 
3 | C=CCN1C(=O)/C(=C/c2ccc(C)cc2)N=C1SC1OC(COC(C)=O)C(OC(C)=O)C(OC(C)=O)C1OC(C)=O (stereo not given) | > 100 µM and 69.5 µM | > 100 µM and 63.4 µM | > 100 | > 100 | > 100 | > 100 µM and 21.4 µM | > 100 | 64.1 | > 100 | > 100 | > 100 | > 100 µM and 23.4 µM | 4.88 µM and 11.2 µM | > 100 µM and 31.7 µM | > 70.6 µM and 7.32 µM | > 59.9 µM and 14.6 µM | 3.7 µM and 20.2 µM | 3.83 µM and 37.1 µM
4 | Cc1c(-c2ccccc2)[nH]n(C2=NCCN2)c1=O | > 100 µM | > 100 µM | > 100 | > 100 | > 100 | > 100 µM | > 100 | > 100 | > 100 | > 100 | > 100 |  |  |  |  |  |  | 
5 | COc1ccc(Oc2cnn(C(Br)(Br)C(C)=O)c(=O)c2Br)cc1 | 59.9 µM | 24.6 µM | 26.9 | 48.4 | 24.4 | 23.4 µM | 3.56 | 32.6 | 29.4 | 26.3 | 29.6 |  |  |  |  |  |  | 
6 | CN1CCN(C2=C(Cl)C3(OCCS3)C(F)(F)C2(F)F)CC1 (stereo not given) | > 100 µM | > 100 µM | > 100 | > 100 | > 100 | > 100 µM | > 100 | > 100 | > 100 | > 100 | > 100 |  |  |  |  |  |  | 
7 | CC(C)[Si](OC/C(=C/COC(C)(C)C)[C@H]1CC=C(C(=O)c2ccccc2N2CN(C)C(=O)N(C)C2)C1)(C(C)C)C(C)C | 34.5 µM | 23.5 µM | 31 | 18.7 | 4.06 | 30.3 µM | 1.67 | 39.3 | 28.7 | 24.2 | 23.3 |  |  |  |  |  |  | 
8 | C(=C\c1ccccc1)/COc1ccccc1C(N1CCOCC1)n1nc2ccccc2n1 (stereo not given) | > 100 µM | 43.7 µM | 36.6 | 10.7 | 13.5 | 1.9 µM | 13.2 | 57.9 | 16.9 | 32.4 | 16.4 |  |  |  |  |  |  | 
9 | CN(C)c1ccc(Cc2cc3c(O)ccc(O)c3cc(Cc3ccc(N(C)C)cc3)c2=O)cc1 | > 75.5 µM | 20.5 µM | 36.6 | 37.1 | 40.7 | 36.9 µM | 8.81 | 39.5 | > 92.2 | 33.6 | 65.9 |  |  |  |  |  |  | 
10 | CC(C)C1=C(O)C2=C(C(=O)C1=O)C1(C)CCCC(C)(C)C1C(O)C2OC=O (stereo not given) | 35.1 µM | 11.7 µM | 12.5 | 23.2 | 11.6 | 11.8 µM | 6.91 | 22.8 | 23.7 | 26.2 | 19.4 |  |  |  |  |  |  | 
11 | COc1ccc(N2C(=O)C3c4[nH]c5ccccc5c4C4CCCCCCCCCC4C3C2=O)cc1 (stereo not given) | > 10 µM | > 10 µM | > 10 | > 10 | > 10 | > 10 µM | > 10 | > 10 | > 10 | > 10 | > 10 |  |  |  |  |  |  | 
12 | COP(=O)(OC)C(Nc1ccc(Cc2ccc(NC(c3ccco3)P(=O)(OC)OC)cc2)cc1)c1ccco1 (stereo not given) | 56 µM | 86.3 µM | > 100 | > 100 | > 100 | > 100 µM | > 100 | > 100 | 10.2 | 29.3 | 50.5 |  |  |  |  |  |  | 
13 | Cc1cc(O)c(-c2cc(O)c(C)cc2O)cc1O | 41.8 µM | 14.6 µM | 22.6 | > 53.1 | 16.6 | 9.32 µM | 5.21 | 20.9 | 29 | 16 | 29.8 |  |  |  |  |  |  | 
